Results taken from patent publication US20040023299A1, “Diagnosis of liver disease” (priority 2000, published 2004).
Like-named read-outs stand apart in the source and are kept apart here.

Settings: rats
Method: Chronic liver disease was established by exposing the animals of the 3 experimental groups to weekly intra-gastric administration of CCl4. A starting dose of 80 μl was used and increased weekly, based on the weight of the animals. Nothing was administered to the control group. All the animals were weighed on day one and the experimental groups started with their 80 μl CCl4. After three days the animals were again weighed to determine the dose for the second week. That was the procedure for the administration of the CC4 l during the entire experiment. On day three of week five, the scanning of group 1 started. Anaesthesia in each case was induced with an intraperitoneal injection of sodium pentobarbitone 6% solution (Sagatal, Kryon Laboratories Pty Ltd., Benrose, Gauteng, S. A). […] After the completion of the acquisition, the rats were terminated by an intravenous overdose of sodium pentobarbitone. The livers were taken out, stored in a 10% formalin solution until the next day and then processed and stained with Haematoxylin and Eosin, Reticulin and Cyrus red.
Liver sections of the rats were stained with H&E, Masson Trichrome and Reticulin stains. The amount of necrosis and fibrosis were interpreted by an experienced hepatopathologist and scored according to a classification system whereby 1 was mild necrosis or fibrosis and 4 severe.

[1] = weekly intra-gastric CCl4, after 5 weeks
[2] = weekly intra-gastric CCl4, after 7 weeks
[3] = weekly intra-gastric CCl4, after 9 weeks

ClC(Cl)(Cl)Cl [CCl4]
average score for fibrosis (1 mild, 4 severe) [1]: 1.9 | average score for necrosis (1 mild, 4 severe) [1]: 1.9 | average score for fibrosis (1 mild, 4 severe) [2]: 1.9 | average score for necrosis (1 mild, 4 severe) [2]: 1.7 | average score for fibrosis (1 mild, 4 severe) [3]: 2.1 | average score for necrosis (1 mild, 4 severe) [3]: 1.4
